molecular target: T1, human ALX receptor (Homo sapiens, UniProt P25090); test: Intracellular calcium measurements (FLIPR), ALX receptor agonistic activity; assay type: cell-based; details: HEK293-hALXR-Ga16 cells, calcium flux, normalized to WKYMVm 10 nM; read-out: EC50 (agonistic activity with respect to the ALX receptor)
T1 construct: expressed in transfected cells; host or cells: HEK293 (HEK293-hALXR-Ga16)
T1 sequence (P25090 1-351): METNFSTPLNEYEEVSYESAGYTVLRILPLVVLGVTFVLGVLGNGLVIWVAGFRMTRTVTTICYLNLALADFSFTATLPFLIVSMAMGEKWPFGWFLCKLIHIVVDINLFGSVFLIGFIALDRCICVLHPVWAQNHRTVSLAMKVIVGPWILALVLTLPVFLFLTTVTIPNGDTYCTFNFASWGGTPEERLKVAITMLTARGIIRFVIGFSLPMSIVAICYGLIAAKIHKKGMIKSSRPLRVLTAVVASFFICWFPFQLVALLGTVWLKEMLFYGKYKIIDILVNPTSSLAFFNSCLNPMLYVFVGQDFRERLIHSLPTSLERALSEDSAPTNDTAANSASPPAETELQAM
Protocol: The ALX receptor agonistic activity of the compounds of formula (I) is determined in accordance with the following experimental method.
Intracellular Calcium Measurements:
Cells expressing recombinant human ALX receptor and the G-protein Ga16 (HEK293-hALXR-Ga16) were grown to 80% confluency in Growing Medium (GM). Cells were detached from culture dishes with a cell dissociation buffer (Invitrogen, 13151-014), and collected by centrifugation at 1′000 rpm at rt for 5 min in Assay Buffer (AB) (equal parts of Hank's BSS (Gibco, 14065-049) and DMEM without Phenol Red (Gibco, 11880-028)). After 60 min incubation at 37° C. under 5% CO2 in AB supplemented with 1 μM Fluo-4 (AM) (Invitrogen, F14202) and 20 mM HEPES (Gibco, 15630-056), the cells were washed and resuspended in AB. They were then seeded onto 384-well FLIPR assay plates (Greiner, 781091) at 50′000 cells in 70 μl per well and sedimented by centrifugation at 1′000 rpm for 1 min. Stock solutions of test compounds were made up at a concentration of 10 mM in DMSO, and serially diluted in AB to concentrations required for activation dose response curves. WKYMVm (Phoenix Peptides) was used as a reference agonist. A FLIPR Tetra instrument (Molecular Devices) was operated according to the manufacturer's standard instructions, adding 4 μl of test compound dissolved at 10 mM in DMSO and diluted prior to the experiment in assay buffer to obtain the desired final concentration. Changes in fluorescence were monitored before and after the addition of test compounds at lex=488 nm and lem=540 nm. Emission peak values above base level after compounds addition were exported after base line subtraction. Values were normalized to high-level control (WKYMVm compound, 10 nM final concentration) after subtraction of the base line value (AB addition).

EC50 [nM] | SMILES
8.1 | Cc1cccc(-c2oc(C)nc2C(=O)Nc2cnn(Cc3ccc(C(C)(F)F)o3)n2)c1 [Example 1, 2-Methyl-5-m-tolyl-oxazole-4-carboxylic acid {2-[5-(1,1-difluoro-ethyl)-furan-2-ylmethyl]-2H-[1,2,3]triazol-4-yl}-amide]
19 | CC(F)(F)c1csc(Cn2ncc(NC(=O)c3ncoc3-c3ccccc3)n2)n1 [Example 2, 5-Phenyl-oxazole-4-carboxylic acid {2-[4-(1,1-difluoro-ethyl)-thiazol-2-ylmethyl]-2H-[1,2,3]triazol-4-yl}-amide]
7.7 | Cc1cccc(-c2oc(C)nc2C(=O)Nc2cnn(Cc3nc(C(C)(F)F)cs3)n2)c1 [Example 3, 2-Methyl-5-m-tolyl-oxazole-4-carboxylic acid{2-[4-(1,1-difluoro-ethyl)-thiazol-2-ylmethyl]-2H-[1,2,3]triazol-4-yl}-amide]
0.9 | Cc1nc(C(=O)Nc2cnn(Cc3ccc(C(C)(F)F)o3)n2)c(-c2ccccc2)o1 [Example 4, 2-Methyl-5-phenyl-oxazole-4-carboxylic acid{2-[5-(1,1-difluoro-ethyl)-furan-2-ylmethyl]-2H-[1,2,3]triazol-4-yl}-amide]
818 | Cc1nc(C(=O)Nc2cnn(Cc3nc(C(C)(F)F)cs3)n2)c(-c2cc(F)cc(F)c2)o1 [Example 5, 5-(3,5-Difluoro-phenyl)-2-methyl-oxazole-4-carboxylic acid {2-[4-(1,1-difluoro-ethyl)-thiazol-2-ylmethyl]-2H-[1,2,3]triazol-4-yl}-amide]
14 | Cc1nc(C(=O)Nc2cnn(Cc3nc(C(C)(F)F)cs3)n2)c(-c2cccc(C(F)(F)F)c2)o1 [Example 6, 2-Methyl-5-(3-trifluoromethyl-phenyl)-oxazole-4-carboxylic acid {2-[4-(1,1-difluoro-ethyl)-thiazol-2-ylmethyl]-2H-[1,2,3]triazol-4-yl}-amide]
17 | CC(F)(F)c1ccc(Cn2ncc(NC(=O)c3ncoc3-c3cccc(Cl)c3)n2)o1 [Example 7, 5-(3-Chloro-phenyl)-oxazole-4-carboxylic acid{2-[5-(1,1-difluoro-ethyl)-furan-2-ylmethyl]-2H-[1,2,3]triazol-4-yl}-amide]
69 | COc1cccc(-c2ocnc2C(=O)Nc2cnn(Cc3nc(C(C)(F)F)cs3)n2)c1 [Example 8, 5-(3-Methoxy-phenyl)-oxazole-4-carboxylic acid{2-[4-(1,1-difluoro-ethyl)-thiazol-2-ylmethyl]-2H-[1,2,3]triazol-4-yl}-amide]
291 | CC(F)(F)c1csc(Cn2ncc(NC(=O)c3nc(C4CC4)oc3-c3ccccc3)n2)n1 [Example 9, 2-Cyclopropyl-5-phenyl-oxazole-4-carboxylic acid{2-[4-(1,1-difluoro-ethyl)-thiazol-2-ylmethyl]-2H-[1,2,3]triazol-4-yl}-amide]
6.3 | Cc1nc(C(=O)Nc2cnn(Cc3nc(C(C)(F)F)cs3)n2)c(-c2ccccc2)o1 [Example 10, 2-Methyl-5-phenyl-oxazole-4-carboxylic acid{2-[4-(1,1-difluoro-ethyl)-thiazol-2-ylmethyl]-2H-[1,2,3]triazol-4-yl}-amide]
9.9 | CC(F)(F)c1ccc(Cn2ncc(NC(=O)c3ncoc3-c3cccc(F)c3)n2)o1 [Example 11, 5-(3-Fluoro-phenyl)-oxazole-4-carboxylic acid {2-[5-(1,1-difluoro-ethyl)-furan-2-ylmethyl]-2H-[1,2,3]triazol-4-yl}-amide]
46 | CC(F)(F)c1csc(Cn2ncc(NC(=O)c3ncoc3-c3cccc(Cl)c3)n2)n1 [Example 12, 5-(3-Chloro-phenyl)-oxazole-4-carboxylic acid{2-[4-(1,1-difluoro-ethyl)-thiazol-2-ylmethyl]-2H-[1,2,3]triazol-4-yl}-amide]
1130 | Cc1cc(F)cc(-c2oc(C)nc2C(=O)Nc2cnn(Cc3nc(C(C)(F)F)cs3)n2)c1 [Example 13, 5-(3-Fluoro-5-methyl-phenyl)-2-methyl-oxazole-4-carboxylic acid{2-[4-(1,1-difluoro-ethyl)-thiazol-2-ylmethyl]-2H-[1,2,3]triazol-4-yl}-amide]
